Ends that are not written are not given here.
How the values were obtained:
[1] = test system: bacteria; conditions: cited from earlier work
Text: Oxidized human defensin 5 (HD5OX), a 32-residue α defensin, is stored in the secretory granules of Paneth cells in the small intestine as a propeptide (E20-R94) and is processed by anionic and/or meso isoforms of trypsin during secretion or shortly thereafter at a cleavage site between R62 and A63[6]. […] We have previously prepared bioactive HD5OX using Pichia pastoris and design ... || HD5OX is an endogenous bactericidal agent.

[2] = test system: LPS-binding protein (LBP); LPS-stimulated macrophages; conditions: cited from earlier work
Text: Human defensins are also noted for their immunoregulatory properties. […] Additionally, some defensins are able to suppress the pro-inflammatory effect of bacterial lipopolysaccharide (LPS). For example, H ...

[3] = flexible N-terminus; cited from earlier work
Text: Changes in function follow changes in structure.

[4] = test system: interaction between LPS and LBP (mouse LBP); experiment: LPS-binding protein (LBP) block assay; type: biochemical; conditions: 200 ng/mL, positive control; mouse LBP 60 ng/mL, biotinylated LPS 50 ng/mL
Protocol: The effects of peptides on the interaction between LPS and low concentrations of LBP were determined as previously described. Briefly, the plates of a LBP ELISA kit (Boster EK1274) were blocked by the incubation of 1% BSA prepared in 10 mM sodium phosphate buffer (pH 7.4) at 37 °C for 1 h, which were subsequently washed with 0.1% Tween-20. Aliquots of 100 μL of mouse LBP (Sigma SRP6034, 60 ng/mL) were added and incubated at 37 °C for 1.5 h. Peptides were prepared in sterile water, with concentrations of 12.5, 25, and 50 μg/mL, respectively. Biotinylated LPS (50 ng/mL) was added in the absence or presence of peptides (pre-incubated at 37 °C for 30 min). Polymyxin B (200 ng/mL) was used as a positive control. The binding of LPS to LBP was determined using a chromogenic reaction between HRP-conjugated streptavidin (Boster BA1088) and TMB (Sigma 860336). Data were processed by subtracting the absorbance in the absence of LPS. Statistical significance was determined by the Student−Newman−Keuls multiple comparisons test.
Figure 5. The efficiencies of peptides in blocking the interaction between LPS and LBP. A LBP ELISA plate was blocked by 1% BSA and subsequently washed with 0.1% Tween-20. Aliquots of 100 μL of the mouse LBP (60 ng/mL) was added and incubated at 37°C for 1.5 h. Peptides were prepared in sterile water, with concentrations of 12.5, 25, and 50 μg/mL, respectively. Biotinylated LPS (50 ng/mL) was then added in the absence or presence of peptides (pre-incubated at 37°C for 30 min). Data were processed by subtracting the absorbance in the absence of biotinylated LPS. Statistical significance was determined by the Student−Newman−Keuls multiple comparisons test. n.s, not significant; **, p < 0.01, relative to the value of the group solely treated with LPS.

## human β defensin (HBD) 1 (DHYNCVSSGGQCLYSACPIFTKIQGTCYRGKAKCCK; ends and bridges not checked; cysteine pairing not given here; UniProt P60022 33-68, looked up) [HBD1, ubiquitously expressed peptide in human epithelia]
[1]; disulfide reduction
  antibacterial activity upon reduction: enhanced upon reduction
[2]
  interaction between LPS and low concentrations of LBP; TNF-α production: can block the interaction between LPS and low concentrations of LPS-binding protein

## HBD3: human β defensin cited from the literature (GIINTLQKYYCRVRGGRCAVLSCLPKEEQIGKCSTRGRKCCRRKK; ends and bridges not checked; cysteine pairing not given here; UniProt P81534 23-67, looked up)
[3]
  conformation in SDS micelles: adopts a α-helical-containing structure
[1]
  function without disulfide bonds: can function well without disulfide bonds

## HNP1: human neutrophil peptide cited from the literature
[1]
  antibacterial property on loss of disulfide bonds: loss of disulfide bonds attenuates the antibacterial property
[2]
  interaction between LPS and low concentrations of LBP; TNF-α production: can block the interaction between LPS and low concentrations of LPS-binding protein

## Polymyxin B [PB, reference compound]
[4]
  effect on the interaction between LPS and LBP: significantly inhibited the LPS-LBP interaction

Source: publication PMC4785407, “Reduction Impairs the Antibacterial Activity but Benefits the LPS Neutralization Ability of Human Enteric Defensin 5” (Scientific Reports, 2016)
